The values below come from patent US11098033B2, “Ku inhibitors and their use” (INDIANA UNIVERSITY RESEARCH AND TECHNOLOGY CORPORATION, priority 2016, dated 2021).

Where “and” joins values, the source holds several entries; their conditions need not be identical. Identical values can stand only once. Like-named read-outs stand apart in the source and are kept apart here.

The target in test [1] is T1, Recombinant human Ku heterodimer (Homo sapiens, UniProt P12956+P13010).
T1 construct: made in house; host or cells: insect cells infected with recombinant baculovirus
Nature of the test: Ku-DNA binding assay. The conditions noted are these: several values in a cell = separate determinations, read-out: IC50. An excerpt:
Ku is a DNA end-binding protein that is essential for the repair of DNA double strand breaks via the NHEJ pathway. The mechanism of DNA binding by Ku is via a toroid structure that encircles double-stranded DNA from a terminus.

Test [2] deals with NHEJ activity in H460 cells. Nature of the test: Host cell reactivation assay of NHEJ mediated re-circularization of a linearized GFP plasmid. Type of test: cell-based. The text has this: Disruption of Ku-DNA binding should result in inhibition of NHEJ activity, and to test this inhibition we will employ a host cell reactivation assay. This assay utilizes a linearized plasmid encoding a GFP gene that is transfected into the cell and expressed upon NHEJ mediated re-circularization of the plasmid (Sears, CA., 2012 and Woods, D., 2015). Co-transfection of a circular RFP plasmid accounts for differences in transfection efficiency, and NHEJ mediated repair of the GFP plasmid can be quantified by assessing the ratio of green: red cells. This assay will be used to assess the Ku inhibitor compounds in H460 and HEK-293 cells, and the data obtained from these experiments will allow us to determine the sensitivity of the chemical compounds and effect of Ku inhibition on NHEJ activity. As this is a cellular assay, we will also utilize this assay to do a series of time course experiments to determine the optimal time to deliver the inhibitor to cells in order to achieve maximum inhibition of NHEJ activity.

For test [3], the system named is NHEJ end joining in cell free extract from HEK 293. Nature of the test: In vitro NHEJ (end joining) assay with cell free extract. It counts as biochemical. The conditions noted are these: linearized plasmid DNA (3 kbp), HEK 293 cell free extract pre-incubated with inhibitor, ATP; read-out: IC50 of inhibition of end joining. On the procedure:
Radiolabeled linearized DNA was incubated with whole cell extracts with increasing amounts of inhibitor NG-02-132.
A linearized plasmid DNA (3 kbp) is incubated with a cell free extract prepared from a NHEJ competent cell (HEK 293) and ATP. The results presented in FIG. 8 show the substrate alone in lane 1 and the degree of end joining control reactions as evidenced by the formation of plasmid multimers.

The subject of test [4] is H460 non-small cell lung cancer cells, EMX1 locus. Nature of the test: Crispr/Cas9 mediated gene insertion at the EMX1 locus. It counts as cell-based. The text has this:
To assess the effect of Ku inhibitors on genome engineering efficiency we designed an assay to quantify the recombination efficiency of a Crispr/Cas9 mediated gene insertion event. A donor insert of 2.2 kbp encoding puromycin resistance and a GFP gene was flanked by 800 bp homology arms directing the insert to the EMX1 locus. A guide RNA directing the Cas9 nuclease to the EMX1 gene was purchased and co-transfected with the donor construct and Cas9 expressing plasmid in H460 non-small cell lung cancer cells that were either treated with vehicle or 20 uM 205. 24 hours later, cells were placed under selection with puromycin for 5 days and plated in 96-well plates for single cell cloning. Clones were expanded, genomic DNA isolated and location specific PCR analysis was performed to assess accurate gene insertion at the EMX1 locus.

The mark [5] stands for this setting: Table 2, synthesized derivatives.
Where [6] appears, read: Table 1, purchased second generation inhibitors.

T1 sequence (P12956 whole entry): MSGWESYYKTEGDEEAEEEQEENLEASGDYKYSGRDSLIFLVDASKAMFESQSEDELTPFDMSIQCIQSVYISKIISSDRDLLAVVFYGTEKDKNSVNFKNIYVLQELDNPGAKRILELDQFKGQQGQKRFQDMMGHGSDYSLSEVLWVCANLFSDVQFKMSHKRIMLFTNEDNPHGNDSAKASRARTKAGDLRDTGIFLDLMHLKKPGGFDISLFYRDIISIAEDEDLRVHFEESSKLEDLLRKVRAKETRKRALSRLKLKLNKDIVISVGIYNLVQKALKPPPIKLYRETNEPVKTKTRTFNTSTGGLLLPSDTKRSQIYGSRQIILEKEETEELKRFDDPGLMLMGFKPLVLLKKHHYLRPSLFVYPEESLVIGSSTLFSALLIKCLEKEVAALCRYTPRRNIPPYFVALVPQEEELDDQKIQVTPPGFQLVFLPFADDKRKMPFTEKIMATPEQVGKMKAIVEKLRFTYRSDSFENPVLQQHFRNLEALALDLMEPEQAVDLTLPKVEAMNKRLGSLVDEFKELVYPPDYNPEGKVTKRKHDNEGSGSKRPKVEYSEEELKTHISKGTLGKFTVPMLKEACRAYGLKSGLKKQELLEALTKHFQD
T1 sequence (P13010 whole entry): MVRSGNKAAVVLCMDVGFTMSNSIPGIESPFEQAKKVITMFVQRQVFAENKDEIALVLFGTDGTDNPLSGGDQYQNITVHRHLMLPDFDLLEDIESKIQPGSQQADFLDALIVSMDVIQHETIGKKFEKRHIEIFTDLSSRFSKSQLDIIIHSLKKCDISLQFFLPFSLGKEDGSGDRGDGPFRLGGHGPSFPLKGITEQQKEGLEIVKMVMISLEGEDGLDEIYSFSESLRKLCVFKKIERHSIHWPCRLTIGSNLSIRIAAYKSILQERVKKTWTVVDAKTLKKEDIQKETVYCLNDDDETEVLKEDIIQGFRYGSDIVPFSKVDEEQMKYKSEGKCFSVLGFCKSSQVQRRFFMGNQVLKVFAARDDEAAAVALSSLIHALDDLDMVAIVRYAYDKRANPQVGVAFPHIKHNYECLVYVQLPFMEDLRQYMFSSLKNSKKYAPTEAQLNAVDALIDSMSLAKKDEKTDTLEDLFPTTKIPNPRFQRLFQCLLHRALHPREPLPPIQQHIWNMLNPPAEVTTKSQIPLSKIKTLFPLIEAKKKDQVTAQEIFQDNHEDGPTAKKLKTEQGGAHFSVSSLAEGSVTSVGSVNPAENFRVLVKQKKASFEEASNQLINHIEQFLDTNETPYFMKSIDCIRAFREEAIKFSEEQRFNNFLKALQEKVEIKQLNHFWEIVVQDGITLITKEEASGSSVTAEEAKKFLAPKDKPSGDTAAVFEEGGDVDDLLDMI

For the molecule `COc1cccc(NC(=O)c2cc(-c3ccc(/C=C4\C(=O)N(c5cccc(C(=O)O)c5)N=C4C)o3)ccc2Cl)c1` [NG-01-68/02-140/03-180, (Z)-3-(4-((5-(4-Chloro-3-((3-methoxyphenyl)carbamoyl)phenyl)furan-2-yl)methylene)-3-methyl-5-oxo-4,5-dihydro-1H-pyrazol-1-yl)benzoic acid], the half-maximal inhibitory concentration (IC50) in test [1] (setting [5]) was 6 µM and 15 µM and 4 µM (2×). The “NHEJ catalyzed repair events” value in test [2] (H460 cells preincubated 2 hours prior to transfection of the reporters, measured 48 hours post transfection, without compound 26%, preliminary data) is given as 17%. In addition, the “reduction of NHEJ catalyzed repair events” value in test [2] (H460 cells, 2 hours preincubation, 48 hours post transfection, from 26% to 17%) came to 35%.
Turning to `COc1cccc(NC(=O)c2cc(-c3ccc(CC4C(=O)N(c5cccc(C(=O)O)c5)N=C4C)o3)ccc2Cl)c1` (stereo not drawn) [NG-02-132/ NG-02-149, 3-(4-((5-(4-Chloro-3-((3-methoxyphenyl)carbamoyl)phenyl)furan-2-yl)methyl)-3-methyl-5-oxo-4,5-dihydro-1H-pyrazol-1-yl)benzoic acid], the IC50 is 1 µM (2×) and 4 µM and 6 µM in test [1] (setting [5]); ~15 µM in test [3].
On to `COc1cccc(NC(=O)c2cc(-c3ccc(CC4C(=O)N(c5cccc(-c6nnn[nH]6)c5)N=C4C)o3)ccc2Cl)c1` (stereo not drawn) [NG-03-205, 5-(5-((1-(3-(1H-Tetrazol-5-yl)phenyl)-3-methyl-5-oxo-4,5-dihydro-1H-pyrazol-4-yl)methyl)furan-2-yl)-2-chloro-N-(3-methoxyphenyl)benzamide], for which the IC50 in test [1] (setting [5]) is 13 µM. In test [4] (+Inhibitor (20 uM), accurate gene insertion at EMX1 locus, −Inhibitor 14%), the Efficiency was found to be 80%. Also, the “In/Out+” value in test [4] (+Inhibitor (20 uM), clones positive in location specific PCR, −Inhibitor 4) amounted to 4. Besides, the Clones in test [4] (+Inhibitor (20 uM), puromycin selection 5 days, single cell cloning, −Inhibitor 28) is reported as 5. Besides, in test [4] (H460 cells, 20 uM, versus vehicle), the “increase in precise genome insertion efficiency” value is “greater than 6 fold”.
As for `COc1cc([N+](=O)[O-])ccc1-c1ccc(/C=C2\C(=O)N(c3cccc(C(=O)O)c3)N=C2C)o1` [compound 0814, reference compound], in test [1] (setting [6]), the IC50 came out at 190 µM.
Same read-out and setting: then `CC1=NN(c2cccc(C(=O)O)c2)C(=O)/C1=C\c1ccc(-c2ccccc2C(=O)O)o1` [compound 0949, reference compound], with 91 µM.
Turning to `CC1=NN(c2cccc(C(=O)O)c2)C(=O)/C1=C\c1ccc(-c2cc([N+](=O)[O-])ccc2O)o1` [compound 1564, reference compound], in test [1] (setting [6]), the IC50 was 21 µM and 7 µM.
With `CC1=NN(c2cccc(C(=O)O)c2)C(=O)/C1=C\c1ccc(-c2ccc(Cl)c(C(=O)OCc3ccccc3Cl)c2)o1` [compound 2249, reference compound], the IC50 in test [1] (setting [6]) came out at 2.9 µM.
`CC1=NN(c2cccc(C(=O)O)c2)C(=O)/C1=C\c1ccc(-c2ccc(C(=O)O)cc2)o1` [compound 2513, reference compound]: the IC50 in test [1] (setting [6]) is 150 µM.
On to `CCOC(=O)c1cccc(-c2ccc(/C=C3\C(=O)N(c4cccc(C(=O)O)c4)N=C3C)o2)c1` [compound 2714, reference compound], for which, in test [1] (setting [6]), the half-maximal inhibitory concentration (IC50) turned out to be 9.1 µM.
For the molecule `CCCOC(=O)c1cc(-c2ccc(/C=C3\C(=O)N(c4cccc(C(=O)O)c4)N=C3C)o2)ccc1Cl` [compound 2727, reference compound], the IC50 in test [1] (setting [6]) was 7.6 µM and 5.7 µM.
With `CCOC(=O)c1cc(-c2ccc(/C=C3\C(=O)N(c4cccc(C(=O)O)c4)N=C3C)o2)ccc1Cl` [compound 2733, reference compound], in test [1] (setting [6]), the IC50 was 4.2 µM and 9 µM.
Regarding `COC(=O)c1cccc(-c2ccc(/C=C3\C(=O)N(c4cccc(C(=O)O)c4)N=C3C(F)(F)F)o2)c1` [compound 2777, reference compound], the IC50 in test [1] (setting [6]) is 40 µM and 16 µM.
In the case of `C=CCOC(=O)c1cccc(-c2ccc(/C=C3\C(=O)N(c4ccc(Cl)c(C(=O)O)c4)N=C3C)o2)c1` [compound 2922, reference compound], the IC50 in test [1] (setting [6]) is 6.2 µM and 5 µM.
Consider `CC1=NN(c2cccc(C(=O)O)c2)C(=O)/C1=C\c1ccc(-c2cccc(C(=O)OC(C)C)c2)o1` [compound 3125, reference compound], for which, in test [1] (setting [6]), the IC50 is 11 µM and 3.5 µM.
`CCOC(=O)c1cccc(-c2ccc(/C=C3\C(=O)N(c4ccc(Cl)c(C(=O)O)c4)N=C3C)o2)c1` [compound 3278, reference compound]: the IC50 in test [1] (setting [6]) was 4.3 µM and 8.1 µM.
Regarding `CC1=NN(c2ccc(Cl)c(C(=O)O)c2)C(=O)/C1=C\c1ccc(-c2cccc(C(=O)OC(C)C)c2)o1` [compound 3315, reference compound], the IC50 in test [1] (setting [6]) was 31 µM and 5.7 µM.
With `CC1=NN(c2ccc(Cl)c(C(=O)O)c2)C(=O)/C1=C\c1ccc(-c2ccc3c(c2)C(=O)OC3)o1` [compound 4770, reference compound], the IC50 in test [1] (setting [6]) was determined as 21.8 µM.
For `C#CCOC(=O)c1cccc(-c2ccc(/C=C3\C(=O)N(c4ccc(Cl)c(C(=O)O)c4)N=C3C)o2)c1` [compound 7026, reference compound], the IC50 in test [1] (setting [6]) came to 16.9 µM.
In the case of `CC1=NN(c2cccc(C(=O)O)c2)C(=O)/C1=C\c1ccc(-c2ccc3c(c2)C(=O)OC3)o1` [compound 7997, reference compound], in test [1] (setting [6]), the half-inhibitory concentration (IC50) was 32 µM and 16 µM and 40 µM.
For “(Z)-2-chloro-5-(54(1-(3-cyanophenyl)-3-methyl-5-oxo-1,5-dihydro-4H-pyrazol-4-ylidene)methyl)furan-2-yl)-N-(3-methoxyphenyl)benzamide [NG-03-193]”, the IC50 in test [1] (setting [5]) turned out to be 25 µM.
